Tests used:
BRD4 = BRD4 (Homo sapiens, UniProt O60885); assay: Western blot of BRD4 levels in RS4;11 cells; type: cell-based; set-up: endogenous in cells; host or cells: RS4;11 (ATCC CRL-1873); conditions: 4 h
Experimental: Next, the light dependence of targeted protein degradation was analyzed in RS4;11 cells by western blot analysis of the BET proteins BRD2-4 (FIG. 5). To this end, cells were treated with increasing concentrations of our lead compound, PHOTAC-I-3, for 4 h and pulse-irradiated with 390 nm light (100 ms every 10 s). […] The cereblon-dependent degradation was confirmed by a competition experiment (FIG. 5E), and further validated by siRNA knockdown of cereblon (FIG. 13).
Western Immunoblot Analysis. Rabbit monoclonal Antibodies for BRD4 (#13440), β-Actin (#4970) c-Myc (#5605) and Anti-rabbit IgG, HRP-linked Antibody (#7074) were purchased from Cell Signalling Technologies.
(§1) Cells were incubated with different concentrations of selected compounds. They were placed in a light-proof box and preirradiated for 1 min at 390 nm followed by 100 ms pulses every 10 s or were kept in the dark for 4 h.
(§2) Cultured cells were collected by centrifugation and washed twice with cold PBS. The supernatant was removed and each cell pellet was lysed in 100 μL NP40-Cell-Lysis Buffer+0.1% SDS+1 mM PMSF+ protease inhibitor cocktail (Sigma Aldrich) for 30 min on ice, with vortexing at 10-minute intervals. Afterwards, cells were centrifuged at 13.000 rpm for 10 min at 4° C. Samples were stored on ice and the supernatant was collected for protein concentration determination using a Thermofisher Scientific Pierce™ Coomassie Plus (Bradford) Assay Kit.
(§3) The samples were diluted each with 5 μL Laemmli sample buffer Invitrogen (NuPAGE LDS Sample Buffer 4×) and 1 μL DTT, heated at 95° C. for 5 min. Respectively 20 μL of each sample was loaded in a lane of a Bio-Rad Mini-PROTEAN TGX precast Gel, 4-20%, used with tris-glycine SDS Running buffer. The gel ran 5 min at 50 V, then 35 min at 140 V. Next step was the electrotransfer to a polyvinylidene difluoride (PVDF) membrane which was carried out using an iBlot™ 2 Dry Blotting System set to the standard program. After the transfer, the membrane was washed with 25 mL TB ST for 5 min and subsequent incubated in 25 mL of blocking buffer (1×TBST+5% nonfat dry milk, Blotto, Santa Cruz Biotechnology) for 1 h at room temperature. The membrane was washed three times for 5 min each with 15 mL of TBST and incubated in a 10 mL antibody dilution buffer with gentle agitation at 4° C. overnight (Actin: 1:1000; c-MYC: 1:1000; BRD4: 1:1000). The next day, the membrane was washed again three times for 5 min each with 15 mL TBST, followed by incubation with anti-rabbit, HRP-linked antibody (1:2000) in 10 mL blocking buffer with gentle agitation for 1 h at room temperature. Afterwards, the membrane was washed three times for 5 min each with 15 mL TBST and then incubated in 10 mL of Clarity Max Western ECL Substrate solution for 5 min. Chemoluminescence imaging was performed on a Bio-Rad ChemiDoc™ Imaging System.
(§4) LED illumination. For illumination of the cells we used the cell disco system as previously described in the literature^[25]. 390 nm 5 mm LEDs were purchased from Roithner Lasertechnik. Cells were preirradiated for 1 min at 390 nm, followed by 100 ms pulses every 10 s in 96- or 6-well plates.

RS4;11 lymphoblast cells = assay: Cell viability assay (Promega MTS), dark or pulsed irradiation; type: cell-based, human; conditions: 72 h, dark vs pulsed 390 nm irradiation
Experimental: Optical control of BRD2-4 with PHOTACs. To assess the biological activity of the PHOTACs, their effect on the viability of RS4;11 lymphoblast cells was tested. Cells were treated in a 96-well plate with increasing concentrations of PHOTACs and were either irradiated with 390 nm light pulses (100 ms every 10 s) for 72 h or incubated with the compound in the dark. Subsequently, cell viability assays (Promega MTS) were performed, as previously described.
Cell culture. The human acute lymphoblastic leukemia RS4;11 (ATCC® CRL-1873™) cell line was purchased from the American Type Culture Collection and cultured in RPMI1640 medium (Gibco) with 10% fetal bovine serum (FBS) and 1% penicillin/streptomycin (PS) in a humidified incubator at 37° C. with 5% CO2 in air. Cells were divided every 2-3 days and the concentration was maintained between 1×10^5 and 1×10^6 cells/mL. For the experiments compounds were serially diluted in RPMI160 without the dye phenol red (Gibco) to reduce the influence of the dye by absorption. Azobenzene stocks and dilutions were strictly kept in the dark and prepared under red light conditions.
Colorimetric MTT Assays. The activity of dehydrogenase enzymes in metabolically active cells, as a quantitative measurement for cytotoxicity and proliferation, was determined by colorimetric measurement of the reduction of [3-(4,5-dimethylthiazol-2-yl)-5-(3-carboxymethoxyphenyl)-2-(4-sulfophenyl)-2H-tetrazolium (MTS) to formazan. The absorbance of formazan at 490 nm was measured on a FLUOstar Omega microplate reader (BMG Labtech).
Cells were treated with different concentrations, ranging from 10 μM to 1 nM, of our compounds and incubated on a 96-well plate for 72 h. They were placed in light-proof boxes and exposed to the lighting conditions specified in the experiment for 72 h. Next, 10 μL of Promega CellTiter 96® AQueous One Solution Reagent was added to each well and incubated for further 4-7 hours. The absorbance at 490 nm was then recorded with a 96-well plate reader.
as §4

FKBP12 = target: T1, FKBP12 (Homo sapiens, UniProt P62942); assay: Immunoblot of FKBP12 levels in RS4;11 cells; type: cell-based; conditions: for FKBP12 levels: 390 nm pulse irradiation (100 ms every 10 s); for hook effect in FKBP12 degradation: 4 h, different concentrations; for FKBP12 degradation: in the dark; for FKBP12 degradation with MLN4924: in the presence of MLN4924; for light activation among compounds targeting FKBP12: light vs dark
T1 construct: endogenous in cells; host or cells: RS4;11 (ATCC CRL-1873)
Experimental: FIG. 6 depicts optical control of FKBP12 degradation. A) Immunoblot analysis of FKBP12 after treatment of RS4;11 cells with PHOTAC-II-5 for 4 h at different concentrations. Cells were either irradiated with pulses of 390 nm light (left, 100 ms every 10 s) or kept in the dark (right). B) Time course of FKBP12 degradation visualized by immunoblotting. RS4;11 cells were treated with PHOTAC-II-5 (100 nM) and collected at the indicated time points. C) Immunoblot analysis of FKBP12 after treatment of RS4;11 cells with PHOTAC-II-6 for 4 h at different concentrations. Cells were either irradiated with pulses of 390 nm light (left, 100 ms every 10 s) or kept in the dark (right). D) Time course of FKBP12 degradation visualized by immunoblotting. RS4;11 cells were treated with PHOTAC-II-6 (100 nM) and collected at the indicated time points.
FIG. 15 depicts FKBP12 immunoblots in RS4;11 cells. […] B) Degradation of FKBP12. Immunoblot analysis of FKBP12 after treatment of RS4;11 cells with PHOTAC-II-1 for 4 h at different concentrations. Cells were either irradiated with 100 ms pulses of 390 nm light every 10 s (left) or kept the dark (right). C) Time course of FKBP12 degradation visualized by immunoblotting.
Amongst the molecules tested, PHOTAC-II-5 and PHOTAC-II-6 turned out to be the most useful, and the biological investigations have been focused on these molecules (for PHOTACs-II-1-4, see FIG. 16). […] The degradation was slower than in the case of BET proteins, but between 6 and 12 hours the protein was largely absent from the cell lysates (FIG. 6B). […] The time course of FKBP12 degradation by PHOTAC-II-6 was similar to the one observed with PHOTAC-II-5 (FIG. 6D).
as §1, §2, §3
LED illumination. For illumination of the cells we used the cell disco system as previously described in the literature^[25]. […]

T1 sequence (P62942 whole entry): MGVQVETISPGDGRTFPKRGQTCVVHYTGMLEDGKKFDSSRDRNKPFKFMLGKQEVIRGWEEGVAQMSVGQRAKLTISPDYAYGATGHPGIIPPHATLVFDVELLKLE

## Cc1sc2c(c1C)C(c1ccc(Cl)cc1)=N[C@@H](CC(=O)Nc1ccc(/N=N/c3ccc(NC(=O)COc4cccc5c4C(=O)N(C4CCC(=O)NC4=O)C5=O)cc3)cc1)c1nnc(C)n1-2 (stereo partly drawn) [PHOTAC-I-10, 2-((S)-4-(4-chlorophenyl)-2,3,9-trimethyl-6H-thieno[3,2-f][1,2,4]triazolo[4,3-a][1,4]diazepin-6-yl)-N-(4-((E)-(4-(2-((2-(2,6-dioxopiperidin-3-yl)-1,3-dioxoisoindolin-4-yl)oxy)acetamido)phenyl)diazenyl)phenyl)acetamide]
BRD4; 390 nm pulses
  concentration at which robust photodegradation of BRD4 was found: ≤ 10 nM
BRD4; different concentrations, 390 nm
  hook effect in BRD4 degradation: clear hook-effect
RS4;11 lymphoblast cells
  light dependence of activity in viability assay: light-dependent behavior

## CCC(C)(C)C(=O)C(=O)N1CCCC[C@H]1C(=O)O[C@H](CCc1ccc(OC)c(OC)c1)c1cccc(OCC(=O)Nc2ccc(/N=N/c3ccc(NC(=O)COc4cccc5c4C(=O)N(C4CCC(=O)NC4=O)C5=O)cc3)cc2)c1 (stereo partly drawn) [PHOTAC-II-6, (1R)-3-(3,4-dimethoxyphenyl)-1-(3-(2-((4-((E)-(4-(2-((2-(2,6-dioxopiperidin-3-yl)-1,3-dioxoisoindolin-4-yl)oxy)acetamido)phenyl)diazenyl)phenyl)amino)-2-oxoethoxy)phenyl)propyl (2S)-1-(3,3-dimethyl-2-oxopentanoyl)piperidine-2-carboxylate]
FKBP12
  FKBP12 levels: light-dependent degradation
  hook effect in FKBP12 degradation: pronounced “hook effect”
  FKBP12 degradation: slight dark activity
  FKBP12 degradation with MLN4924: inactive
  light activation among compounds targeting FKBP12: largest light activation

## CCC(C)(C)C(=O)C(=O)N1CCCC[C@H]1C(=O)O[C@H](CCc1ccc(OC)c(OC)c1)c1cccc(OCC(=O)NCCNC(=O)COc2ccc(/N=N\c3cccc4c3CN(C3CCC(=O)NC3=O)C4=O)cc2)c1 (stereo partly drawn) [PHOTAC-II-5, (1R)-3-(3,4-dimethoxyphenyl)-1-(3-(2-((2-(2-(4-((Z)-(2-(2,6-dioxopiperidin-3-yl)-1-oxoisoindolin-4-yl)diazenyl)phenoxy)acetamido)ethyl)amino)-2-oxoethoxy)phenyl)propyl (25)-1-(3,3-dimethyl-2-oxopentanoyl)piperidine-2-carboxylate]
FKBP12
  FKBP12 levels: pronounced effect on FKBP12 levels
  hook effect in FKBP12 degradation: pronounced “hook effect”
  FKBP12 degradation: no degradation could be observed in the dark
  FKBP12 degradation with MLN4924: inactive
  light activation among compounds targeting FKBP12: largest light activation

## COc1cc(/N=N/c2cccc3c2CN(C2CCC(=O)N(C)C2=O)C3=O)cc(OC)c1OCC(=O)NCCCCNC(=O)C[C@@H]1N=C(c2ccc(Cl)cc2)c2c(sc(C)c2C)-n2c(C)nnc21 (stereo partly drawn) [Me-PHOTAC-I-3, 2-((S)-4-(4-chlorophenyl)-2,3,9-trimethyl-6H-thieno[3,2-f][1,2,4]triazolo[4,3-a][1,4]diazepin-6-yl)-N-(4-(2-(2,6-dimethoxy-4-((E)-(2-(1-methyl-2,6-dioxopiperidin-3-yl)-1-oxoisoindolin-4-yl)diazenyl)phenoxy)acetamido)butyl)acetamide]
BRD4; 390 nm pulses (100 ms every 10 s)
  BRD4 levels: inactive control

## CCC(C)(C)C(=O)C(=O)N1CCCC[C@H]1C(=O)O[C@H](CCc1ccc(OC)c(OC)c1)c1cccc(OCC(=O)NCCCNC(=O)COc2c(OC)cc(/N=N\c3cccc4c3CN(C3CCC(=O)NC3=O)C4=O)cc2OC)c1 (stereo partly drawn) [PHOTAC-II-1, (1R)-3-(3,4-dimethoxyphenyl)-1-(3-(2-((3-(2-(4-((2-(2,6-dioxopiperidin-3-yl)-1-oxoisoindolin-4-yl)diazenyl)-2,6-dimethoxyphenoxy)acetamido)propyl)-amino)-2-oxoethoxy)phenyl)propyl-(2S)-1-(3,3-dimethyl-2-oxopentanoyl)-piperidine-2-carboxylate]
FKBP12
  FKBP12 levels: slow, but sustained FKBP12 degradation over time
  FKBP12 degradation: not when kept in the dark

Reference: patent US20220143183A1, “PHOTOSWITCHABLE PROTACS AND SYNTHESIS AND USES THEREOF” (New York University, priority 2019, published 2022)
